Earlier results, collected in paper PMC13015236 (Journal of Pharmaceutical Analysis, 2025).

How the values were obtained:
[1] = test system: non-small cell lung cancer (NSCLC); conditions: NSCLC patients
[2] = patients

| Substance | objective response rate (ORR) [1] [%] | objective response rate (ORR) [2] [%] |
| --- | --- | --- |
| atezolizumab | 16.2 | 24 |
| tiragolumab |  | 21 |
